In ChEMBL document CHEMBL1154101, “Purinergic P2X(7) receptor antagonists: Chemistry and fundamentals of biological screening” (Bioorg Med Chem, 2009):

Assays:
[1] = target: T1, P2X purinoceptor 7 (Homo sapiens, UniProt Q99572); assay: Antagonist activity at P2X7 receptor in human THP1 cells assessed as inhibition of BzATP-induced pore formation; assay type: functional, cell-based, THP-1
T1 sequence (Q99572 whole entry): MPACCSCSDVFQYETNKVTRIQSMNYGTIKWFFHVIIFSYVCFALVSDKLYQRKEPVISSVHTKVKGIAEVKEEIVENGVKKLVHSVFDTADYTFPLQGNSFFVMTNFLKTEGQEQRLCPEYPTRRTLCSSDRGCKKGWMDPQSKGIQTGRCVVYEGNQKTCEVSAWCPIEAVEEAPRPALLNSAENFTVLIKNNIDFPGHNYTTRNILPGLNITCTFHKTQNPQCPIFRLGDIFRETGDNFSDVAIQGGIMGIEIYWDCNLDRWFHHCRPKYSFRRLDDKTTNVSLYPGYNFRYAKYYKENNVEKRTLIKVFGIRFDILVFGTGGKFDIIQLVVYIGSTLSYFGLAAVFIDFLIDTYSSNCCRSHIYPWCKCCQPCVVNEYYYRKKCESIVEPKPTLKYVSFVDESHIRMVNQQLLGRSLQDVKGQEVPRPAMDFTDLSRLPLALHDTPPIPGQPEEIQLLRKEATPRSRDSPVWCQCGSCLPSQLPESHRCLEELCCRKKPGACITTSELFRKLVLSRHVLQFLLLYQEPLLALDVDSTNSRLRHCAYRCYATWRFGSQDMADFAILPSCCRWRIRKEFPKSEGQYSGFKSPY

[2] = target: T1, P2X purinoceptor 7; assay: Antagonist activity at human recombinant P2X7 receptor expressed in human 1321N1 cells assessed as inhibition of BzATP-induced pore formation flux by fluorometric assay; assay type: functional, cell-based
[3] = target: T1, P2X purinoceptor 7; assay: Antagonist activity at human recombinant P2X7 receptor expressed in human THP1 cells assessed as inhibition of BzATP-induced IL1-beta release by enzyme-linked immunosorbent assay; assay type: functional, cell-based, THP-1
[4] = target: T2, P2X purinoceptor 7 (Rattus norvegicus, UniProt Q64663); assay: Binding affinity at rat P2X7 receptor
T2 sequence (Q64663 whole entry): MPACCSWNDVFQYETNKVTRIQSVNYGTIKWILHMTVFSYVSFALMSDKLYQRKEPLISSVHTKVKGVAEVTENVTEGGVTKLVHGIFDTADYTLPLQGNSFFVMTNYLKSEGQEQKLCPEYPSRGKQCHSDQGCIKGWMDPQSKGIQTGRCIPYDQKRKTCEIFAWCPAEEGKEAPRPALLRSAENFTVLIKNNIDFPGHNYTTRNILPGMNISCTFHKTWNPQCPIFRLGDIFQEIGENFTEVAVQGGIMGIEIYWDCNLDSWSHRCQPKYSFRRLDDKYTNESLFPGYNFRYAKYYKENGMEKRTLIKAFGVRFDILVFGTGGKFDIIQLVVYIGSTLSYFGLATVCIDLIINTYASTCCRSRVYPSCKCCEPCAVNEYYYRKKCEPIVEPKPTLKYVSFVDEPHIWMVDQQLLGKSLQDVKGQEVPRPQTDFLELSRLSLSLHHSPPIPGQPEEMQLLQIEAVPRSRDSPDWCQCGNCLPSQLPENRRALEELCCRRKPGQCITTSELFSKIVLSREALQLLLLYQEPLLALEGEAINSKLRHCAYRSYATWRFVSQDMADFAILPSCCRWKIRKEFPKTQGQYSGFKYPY

IC50 [1] [nM]	SMILES	further results
300	CN([C@@H](Cc1ccc(OS(=O)(=O)c2cccc3cnccc23)cc1)C(=O)N1CCN(c2ccccc2)CC1)S(=O)(=O)c1cccc2cnccc12	
700	N=C1N[C@@H]2O[C@@H]3NC(=N)N[C@]34[C@H]([C@H](CNC(=O)c3cc(Br)c(Br)[nH]3)[C@@H](CNC(=O)c3cc(Br)c(Br)[nH]3)[C@@H]4O[C@H]3[C@H](CNC(=O)c4cc(Br)c(Br)[nH]4)[C@@H](CNC(=O)c4cc(Br)c(Br)[nH]4)[C@@H]4[C@]5(O)NC(=N)N[C@@H]5O[C@@H]5NC(=N)N[C@]453)[C@]2(O)N1 [STYLISSADINE A]	
	COc1ccc(CC(=O)NC(N/C(=N/C#N)Nc2cccc3ncccc23)C(C)(C)C)cc1OC (stereo unspecified)	IC50 [2]: 92 nM; IC50 [3]: 156 nM
1800	N=C1N[C@@H]2O[C@@H]3NC(=N)N[C@]34[C@H]([C@H](CNC(=O)c3cc(Br)c(Br)[nH]3)[C@@H](CNC(=O)c3cc(Br)c(Br)[nH]3)[C@@H]4O[C@H]3[C@H](CNC(=O)c4cc(Br)c(Br)[nH]4)[C@@H](CNC(=O)c4cc(Br)c(Br)[nH]4)[C@H]4[C@]5(O)NC(=N)N[C@@H]5O[C@@H]5NC(=N)N[C@]534)[C@]2(O)N1 [STYLISSADINE B]	
	[3H]c1ccc([C@H](C)N/C(=N/C#N)Nc2cccc3ncccc23)cc1	IC50 [4]: 10 nM
